Assay results reported in the NIST ThermoML archive (doi:10.1016/j.jct.2011.08.016).
Numbers after ± are expanded uncertainties.

Test: xn = mol fraction of the nth substance listed
Conditions: Liquid, Vibrating tube method

Q: Which mass density (323.15 K, 7000 kPa, x2 = 0.0531) does the source give for `CCCCCCCCCC` [decane] + CCCCCCC here?
A: 711.49 ± 0.44 kg/m3

Q: What about the mass density (323.15 K, 7000 kPa, x2 = 0.2594) of the same molecule?
A: 703.89 ± 0.44 kg/m3

Q: What about the mass density (323.15 K, 8000 kPa, x2 = 0.0531) of the same molecule?
A: 712.35 ± 0.44 kg/m3

Q: What about the mass density (323.15 K, 8000 kPa, x2 = 0.2594) of the same molecule?
A: 704.79 ± 0.45 kg/m3

Q: And the mass density (323.15 K, 9000 kPa, x2 = 0.0531)?
A: 713.2 ± 0.45 kg/m3

Q: What about the mass density (323.15 K, 9000 kPa, x2 = 0.2594) of the same molecule?
A: 705.68 ± 0.45 kg/m3

Q: And the mass density (323.15 K, 10000 kPa, x2 = 0.0531)?
A: 714.07 ± 0.45 kg/m3

Q: And the mass density (323.15 K, 10000 kPa, x2 = 0.2594)?
A: 706.56 ± 0.46 kg/m3

Q: And the mass density (323.15 K, 10990 kPa, x2 = 0.0531)?
A: 714.9 ± 0.46 kg/m3

Q: And the mass density (323.15 K, 10990 kPa, x2 = 0.2594)?
A: 707.43 ± 0.46 kg/m3

Q: What about the mass density (323.15 K, 12000 kPa, x2 = 0.0531) of the same molecule?
A: 715.73 ± 0.46 kg/m3

Q: And the mass density (323.15 K, 12000 kPa, x2 = 0.2594)?
A: 708.29 ± 0.47 kg/m3

Q: And the mass density (323.15 K, 13000 kPa, x2 = 0.0531)?
A: 716.54 ± 0.47 kg/m3

Q: And the mass density (323.15 K, 13000 kPa, x2 = 0.2594)?
A: 709.14 ± 0.47 kg/m3

Q: And the mass density (323.15 K, 14000 kPa, x2 = 0.0531)?
A: 717.35 ± 0.47 kg/m3

Q: And the mass density (323.15 K, 14000 kPa, x2 = 0.2594)?
A: 709.98 ± 0.48 kg/m3

Q: And the mass density (323.15 K, 15000 kPa, x2 = 0.0531)?
A: 718.14 ± 0.48 kg/m3

Q: And the mass density (323.15 K, 15000 kPa, x2 = 0.2594)?
A: 710.81 ± 0.49 kg/m3

Q: And the mass density (323.15 K, 16000 kPa, x2 = 0.0531)?
A: 718.92 ± 0.48 kg/m3

Q: What about the mass density (323.15 K, 16000 kPa, x2 = 0.2594) of the same molecule?
A: 711.62 ± 0.49 kg/m3

Q: What about the mass density (323.15 K, 17000 kPa, x2 = 0.0531) of the same molecule?
A: 719.7 ± 0.49 kg/m3

Q: And the mass density (323.15 K, 17000 kPa, x2 = 0.2594)?
A: 712.43 ± 0.5 kg/m3

Q: What about the mass density (323.15 K, 18000 kPa, x2 = 0.0531) of the same molecule?
A: 720.46 ± 0.5 kg/m3

Q: And the mass density (323.15 K, 18000 kPa, x2 = 0.2594)?
A: 713.25 ± 0.5 kg/m3

Q: And the mass density (323.15 K, 19000 kPa, x2 = 0.0531)?
A: 721.21 ± 0.5 kg/m3

Q: What about the mass density (323.15 K, 19000 kPa, x2 = 0.2594) of the same molecule?
A: 714.01 ± 0.51 kg/m3

Q: What about the mass density (323.15 K, 20000 kPa, x2 = 0.0531) of the same molecule?
A: 721.96 ± 0.51 kg/m3

Q: And the mass density (323.15 K, 20000 kPa, x2 = 0.2594)?
A: 714.78 ± 0.52 kg/m3

Q: And the mass density (323.15 K, 21000 kPa, x2 = 0.0531)?
A: 722.7 ± 0.51 kg/m3

Q: What about the mass density (323.15 K, 21000 kPa, x2 = 0.2594) of the same molecule?
A: 715.55 ± 0.52 kg/m3

Q: What about the mass density (323.15 K, 22000 kPa, x2 = 0.0531) of the same molecule?
A: 723.41 ± 0.52 kg/m3

Q: And the mass density (323.15 K, 22000 kPa, x2 = 0.2594)?
A: 716.3 ± 0.53 kg/m3

Q: What about the mass density (323.15 K, 23000 kPa, x2 = 0.0531) of the same molecule?
A: 724.12 ± 0.53 kg/m3

Q: And the mass density (323.15 K, 23000 kPa, x2 = 0.2594)?
A: 716.98 ± 0.53 kg/m3

Q: And the mass density (323.15 K, 24000 kPa, x2 = 0.0531)?
A: 724.82 ± 0.53 kg/m3

Q: And the mass density (323.15 K, 24000 kPa, x2 = 0.2594)?
A: 717.65 ± 0.54 kg/m3

Q: And the mass density (323.15 K, 25000 kPa, x2 = 0.0531)?
A: 725.51 ± 0.54 kg/m3

Q: What about the mass density (323.15 K, 25000 kPa, x2 = 0.2594) of the same molecule?
A: 718.3 ± 0.55 kg/m3

Q: What about the mass density (323.16 K, 1000 kPa, x2 = 0.777) of the same molecule?
A: 673.59 ± 0.43 kg/m3

Q: What about the mass density (323.16 K, 2000 kPa, x2 = 0.777) of the same molecule?
A: 674.58 ± 0.43 kg/m3

Q: What about the mass density (323.16 K, 3000 kPa, x2 = 0.777) of the same molecule?
A: 675.56 ± 0.44 kg/m3

Q: What about the mass density (323.16 K, 4000 kPa, x2 = 0.777) of the same molecule?
A: 676.57 ± 0.44 kg/m3

Q: What about the mass density (323.16 K, 5000 kPa, x2 = 0.777) of the same molecule?
A: 677.56 ± 0.45 kg/m3

Q: What about the mass density (323.16 K, 6000 kPa, x2 = 0.777) of the same molecule?
A: 678.57 ± 0.45 kg/m3

Q: And the mass density (323.16 K, 7000 kPa, x2 = 0.777)?
A: 679.58 ± 0.46 kg/m3

Q: What about the mass density (323.16 K, 8000 kPa, x2 = 0.777) of the same molecule?
A: 680.57 ± 0.46 kg/m3

Q: And the mass density (323.16 K, 9000 kPa, x2 = 0.777)?
A: 681.56 ± 0.47 kg/m3

Q: What about the mass density (323.16 K, 10000 kPa, x2 = 0.777) of the same molecule?
A: 682.54 ± 0.48 kg/m3

Q: And the mass density (323.16 K, 10990 kPa, x2 = 0.777)?
A: 683.5 ± 0.48 kg/m3

Q: And the mass density (323.16 K, 12000 kPa, x2 = 0.777)?
A: 684.45 ± 0.49 kg/m3

Q: And the mass density (323.16 K, 13000 kPa, x2 = 0.777)?
A: 685.39 ± 0.5 kg/m3

Q: And the mass density (323.16 K, 14000 kPa, x2 = 0.777)?
A: 686.31 ± 0.5 kg/m3

Q: What about the mass density (323.16 K, 15000 kPa, x2 = 0.777) of the same molecule?
A: 687.21 ± 0.51 kg/m3

Q: And the mass density (323.16 K, 16000 kPa, x2 = 0.777)?
A: 688.1 ± 0.52 kg/m3

Q: What about the mass density (323.16 K, 17000 kPa, x2 = 0.777) of the same molecule?
A: 688.99 ± 0.52 kg/m3

Q: What about the mass density (323.16 K, 18000 kPa, x2 = 0.777) of the same molecule?
A: 689.87 ± 0.53 kg/m3

Q: What about the mass density (323.16 K, 19000 kPa, x2 = 0.777) of the same molecule?
A: 690.73 ± 0.54 kg/m3

Q: And the mass density (323.16 K, 20000 kPa, x2 = 0.777)?
A: 691.58 ± 0.54 kg/m3

Q: And the mass density (323.16 K, 21000 kPa, x2 = 0.777)?
A: 692.41 ± 0.55 kg/m3

Q: What about the mass density (323.16 K, 22000 kPa, x2 = 0.777) of the same molecule?
A: 693.22 ± 0.56 kg/m3

Q: And the mass density (323.16 K, 23000 kPa, x2 = 0.777)?
A: 693.96 ± 0.57 kg/m3

Q: What about the mass density (323.16 K, 24000 kPa, x2 = 0.777) of the same molecule?
A: 694.7 ± 0.57 kg/m3

Q: What about the mass density (323.16 K, 25000 kPa, x2 = 0.777) of the same molecule?
A: 695.42 ± 0.58 kg/m3

Q: What about the mass density (333.11 K, 1000 kPa, x2 = 0.5219) of the same molecule?
A: 679.05 ± 0.42 kg/m3

Q: And the mass density (333.11 K, 2000 kPa, x2 = 0.5219)?
A: 680.06 ± 0.43 kg/m3

Q: What about the mass density (333.11 K, 3000 kPa, x2 = 0.5219) of the same molecule?
A: 681.02 ± 0.43 kg/m3

Q: And the mass density (333.11 K, 4000 kPa, x2 = 0.5219)?
A: 682.02 ± 0.44 kg/m3

Q: What about the mass density (333.11 K, 5000 kPa, x2 = 0.5219) of the same molecule?
A: 683.02 ± 0.44 kg/m3

Q: What about the mass density (333.11 K, 6000 kPa, x2 = 0.5219) of the same molecule?
A: 684.02 ± 0.45 kg/m3

Q: What about the mass density (333.11 K, 7000 kPa, x2 = 0.5219) of the same molecule?
A: 685.02 ± 0.45 kg/m3

Q: And the mass density (333.11 K, 8000 kPa, x2 = 0.5219)?
A: 686.03 ± 0.46 kg/m3

Q: And the mass density (333.11 K, 9000 kPa, x2 = 0.5219)?
A: 687.04 ± 0.46 kg/m3

Q: And the mass density (333.11 K, 10000 kPa, x2 = 0.5219)?
A: 688.03 ± 0.47 kg/m3

Q: What about the mass density (333.11 K, 10990 kPa, x2 = 0.5219) of the same molecule?
A: 689.01 ± 0.48 kg/m3

Q: And the mass density (333.11 K, 12000 kPa, x2 = 0.5219)?
A: 689.97 ± 0.48 kg/m3

Q: And the mass density (333.11 K, 13000 kPa, x2 = 0.5219)?
A: 690.92 ± 0.49 kg/m3

Q: What about the mass density (333.11 K, 14000 kPa, x2 = 0.5219) of the same molecule?
A: 691.85 ± 0.49 kg/m3

Q: And the mass density (333.11 K, 15000 kPa, x2 = 0.5219)?
A: 692.77 ± 0.5 kg/m3

Q: What about the mass density (333.11 K, 16000 kPa, x2 = 0.5219) of the same molecule?
A: 693.68 ± 0.51 kg/m3

Q: What about the mass density (333.11 K, 17000 kPa, x2 = 0.5219) of the same molecule?
A: 694.58 ± 0.51 kg/m3

Q: What about the mass density (333.11 K, 18000 kPa, x2 = 0.5219) of the same molecule?
A: 695.49 ± 0.52 kg/m3

Q: And the mass density (333.11 K, 19000 kPa, x2 = 0.5219)?
A: 696.33 ± 0.53 kg/m3

Q: What about the mass density (333.11 K, 20000 kPa, x2 = 0.5219) of the same molecule?
A: 697.15 ± 0.53 kg/m3

Q: And the mass density (333.11 K, 21000 kPa, x2 = 0.5219)?
A: 697.97 ± 0.54 kg/m3

Q: And the mass density (333.11 K, 22000 kPa, x2 = 0.5219)?
A: 698.76 ± 0.55 kg/m3

Q: And the mass density (333.11 K, 23000 kPa, x2 = 0.5219)?
A: 699.54 ± 0.55 kg/m3

Q: And the mass density (333.11 K, 24000 kPa, x2 = 0.5219)?
A: 700.3 ± 0.56 kg/m3

Q: What about the mass density (333.11 K, 25000 kPa, x2 = 0.5219) of the same molecule?
A: 701.04 ± 0.57 kg/m3

Q: And the mass density (333.12 K, 1000 kPa, x2 = 0.0531)?
A: 698.2 ± 0.41 kg/m3

Q: What about the mass density (333.12 K, 1000 kPa, x2 = 0.777) of the same molecule?
A: 665.15 ± 0.43 kg/m3

Q: What about the mass density (333.12 K, 2000 kPa, x2 = 0.0531) of the same molecule?
A: 699.22 ± 0.42 kg/m3

Q: What about the mass density (333.12 K, 2000 kPa, x2 = 0.777) of the same molecule?
A: 666.23 ± 0.43 kg/m3

Q: And the mass density (333.12 K, 3000 kPa, x2 = 0.0531)?
A: 700.22 ± 0.42 kg/m3

Q: And the mass density (333.12 K, 3000 kPa, x2 = 0.777)?
A: 667.33 ± 0.44 kg/m3
